Assay results from US20250206732A1, “COMPOUNDS AND METHODS FOR THE TARGETED DEGRADATION OF KRAS” (Arvinas Operations, Inc., priority 2022, published 2025).

Biological target: T1, AsPC-1 HiBiT-KRASG12D (Homo sapiens, UniProt P01116, G12D)
T1 construct: insert the HiBiT tag onto the N-terminus of one or more of the endogenous KRAS alleles; endogenous in cells; host or cells: AsPC-1 (ATCC CRL-1682), CRISPR-Cas9 knock-in clone, one tagged allele
Experiment: HiBiT degradation assay (G12D), AsPC-1 HiBiT-KRASG12D cells
Type: cell-based
Details: 24 hours treatment; for Dmax: ASPC1, AsPC-1 HiBiT-KRASG12D cells, maximum degradation observed; for DC50: AsPC-1 HiBiT-KRASG12D cells, HiBiT luminescence
How it was run: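 In this degradation format, an engineered AsPC-1 clone with HiBiT fused to the KRAS N-terminus is exposed to compounds for 24 hours, after which remaining tagged protein is quantified by lytic HiBiT luminescence.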

T1 sequence (P01116 1-188 isoform P01116-2 G12D): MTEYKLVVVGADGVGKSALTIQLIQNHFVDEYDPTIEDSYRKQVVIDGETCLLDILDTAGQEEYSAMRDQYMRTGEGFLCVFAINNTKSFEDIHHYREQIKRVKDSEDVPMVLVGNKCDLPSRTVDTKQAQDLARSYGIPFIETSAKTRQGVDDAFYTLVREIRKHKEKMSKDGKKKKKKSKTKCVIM

Structure (SMILES)	Dmax [%]	DC50 [nM]
C#Cc1c(F)ccc2cc(O)cc(-c3ncc4c(N5CC6CCC(C5)N6)nc(OCCN5CCC(CN6CCN(c7cc([C@H](C(=O)N8C[C@H](O)C[C@H]8C(=O)N[C@@H](C)c8ccc(-c9ccnn9C)cc8)C(C)C)on7)CC6)CC5)nc4c3F)c12 [Compound 190, (2S,4R)-1-[(2R)-2-(3-{4-[(1-{2-[(4-{3,8-diazabicyclo[3.2.1]octan-3-yl}-7-(8-ethynyl-7-fluoro-3-hydroxynaphthalen-1-yl)-8-fluoropyrido[4,3-d]pyrimidin-2-yl)oxy]ethyl}piperidin-4-yl)methyl]piperazin-1-yl}-1,2-oxazol-5-yl)-3-methylbutanoyl]-4-hydroxy-N-[(1S)-1-[4-(1-methyl-1H-pyrazol-5-yl)phenyl]ethyl] pyrrolidine-2-carboxamide]	80 to 100	< 600
CCc1cccc2cc(O)cc(-c3ncc4c(N5CC6CCC(C5)N6)nc(OCCN5CCC(F)(CN6CCN(c7cc([C@@H](C(=O)N8C[C@H](O)C[C@H]8C(=O)N[C@@H](C)c8ccc(-c9scnc9C)cc8)C(C)C)on7)C[C@@H]6C)CC5)nc4c3F)c12 [Compound 196, (2S,4R)-1-[(2S)-2-{3-[(3S)-4-[(1-{2-[(4-{3,8-diazabicyclo[3.2.1]octan-3-yl}-7-(8-ethyl-3-hydroxynaphthalen-1-yl)-8-fluoropyrido[4,3-d]pyrimidin-2-yl)oxy]ethyl}-4-fluoropiperidin-4-yl)methyl]-3-methylpiperazin-1-yl]-1,2-oxazol-5-yl}-3-methylbutanoyl]-4-hydroxy-N-[(1S)-1-[4-(4-methyl-1,3-thiazol-5-yl)phenyl]ethyl]pyrrolidine-2-carboxamide]	20 to 60	600 to 1000
C#Cc1c(F)ccc2cc(O)cc(-c3ncc4c(N5CC6CCC(C5)N6)nc(OCCN5CCC(COc6cc([C@@H](C(=O)N7C[C@H](O)C[C@H]7C(=O)N[C@@H](C)c7ccc(-c8ccnn8C)cc7)C(C)C)on6)CC5)nc4c3F)c12 (relative stereo) [Compound 86, (2S,4R)-1-[(2R*)-2-{3-[(1-{2-[(4-{3,8-diazabicyclo[3.2.1]octan-3-yl}-7-(8-ethynyl-7-fluoro-3-hydroxynaphthalen-1-yl)-8-fluoropyrido[4,3-d]pyrimidin-2-yl)oxy]ethyl}piperidin-4-yl)methoxy]-1,2-oxazol-5-yl}-3-methylbutanoyl]-4-hydroxy-N-[(1S)-1-[4-(1-methyl-1H-pyrazol-5-yl)phenyl]ethyl]pyrrolidine-2-carboxamide]	80 to 100	1000 to 3000
CCc1cccc2cc(O)cc(-c3ncc4c(N5CCCCCC5)nc(OC[C@]56CCCN5[C@H](COC(=O)N5CCN(c7cc([C@H](C(=O)N8C[C@H](O)C[C@H]8C(=O)N[C@@H](C)c8ccc(-c9scnc9C)cc8)C(C)C)on7)CC5)CC6)nc4c3F)c12 (relative stereo) [Compound 278, [(3S,8R)-8-[[4-(azepan-1-yl)-7-(8-ethyl-3-hydroxy-1-naphthyl)-8-fluoro-pyrido[4,3-d]pyrimidin-2-yl]oxymethyl]-1,2,3,5,6,7-hexahydropyrrolizin-3-yl]methyl4-[5-[(1R)-1-[(2S,4R)-4-hydroxy-2-[[(1S)-1-[4-(4-methylthiazol-5-yl)phenyl]ethyl]carbamoyl]pyrrolidine-1-carbonyl]-2-methyl-propyl]isoxazol-3-yl]piperazine-1-carboxylate]	80 to 100	< 600
CCc1cccc2cc(O)cc(-c3ncc4c(N5CC6CCC(C5)N6)nc(OCCN5CCC(CC6CN(c7cc(C(C(=O)N8C[C@H](O)C[C@H]8C(=O)N[C@@H](C)c8ccc(-c9scnc9C)cc8)C(C)C)on7)C6)CC5)nc4c3F)c12 (relative stereo) [Compound 82, (2S,4R)-1-[(2R*)-2-(3-{3-[(1-{2-[(4-{3,8-diazabicyclo[3.2.1]octan-3-yl}-7-(8-ethyl-3-hydroxynaphthalen-1-yl)-8-fluoropyrido[4,3-d]pyrimidin-2-yl)oxy]ethyl}piperidin-4-yl)methyl]azetidin-1-yl}-1,2-oxazol-5-yl)-3-methylbutanoyl]-4-hydroxy-N-[(1S)-1-[4-(4-methyl-1,3-thiazol-5-yl)phenyl]ethyl]pyrrolidine-2-carboxamide]	20 to 60	600 to 1000
C#Cc1c(F)ccc2cc(O)cc(-c3ncc4c(N5CC6CCC(C5)N6)nc(OCCN5CCC(F)(CN6CCN(c7cc([C@@H](C(=O)N8C[C@H](O)C[C@H]8C(=O)N[C@@H](C)c8ccc(-c9ccnn9C)cc8)C(C)C)on7)CC6)CC5)nc4c3F)c12 [Compound 171, (2S,4R)-1-[(2S)-2-(3-{4-[(1-{2-[(4-{3,8-diazabicyclo[3.2.1]octan-3-yl}-7-(8-ethynyl-7-fluoro-3-hydroxynaphthalen-1-yl)-8-fluoropyrido[4,3-d]pyrimidin-2-yl)oxy]ethyl}-4-fluoropiperidin-4-yl)methyl]piperazin-1-yl}-1,2-oxazol-5-yl)-3-methylbutanoyl]-4-hydroxy-N-[(1S)-1-[4-(1-methyl-1H-pyrazol-5-yl)phenyl]ethyl]pyrrolidine-2-carboxamide]	20 to 60	1000 to 3000
CCc1cccc2cc(O)cc(-c3ncc4c(N5CC6CCC(C5)N6)nc(OC[C@]56CCCN5[C@@H](COC(=O)NCc5cc([C@H](C(=O)N7C[C@H](O)C[C@H]7C(=O)N[C@@H](C)c7ccc(-c8scnc8C)cc7)C(C)C)on5)CC6)nc4c3F)c12 [Compound 102, [(3R,7aR)-7a-{[(4-{3,8-diazabicyclo[3.2.1]octan-3-yl}-7-(8-ethyl-3-hydroxynaphthalen-1-yl)-8-fluoropyrido[4,3-d]pyrimidin-2-yl)oxy]methyl}-hexahydro-1H-pyrrolizin-3-yl]methyl N-({5-[(2R)-1-[(2S,4R)-4-hydroxy-2-{[(1S)-1-[4-(4-methyl-1,3-thiazol-5-yl)phenyl]ethyl]carbamoyl}pyrrolidin-1-yl]-3-methyl-1-oxobutan-2-yl]-1,2-oxazol-3-yl}methyl) carbamate]	80 to 100	< 600
CCc1cccc2cc(O)cc(-c3ncc4c(N5CC6CCC(C5)N6C=O)nc(OCCN5CCC(CC6CN(c7cc([C@H](C(=O)N8C[C@H](O)C[C@H]8C(=O)N[C@@H](C)c8ccc(-c9scnc9C)cc8)C(C)C)on7)C6)CC5)nc4c3F)c12 [Compound 246]		> 3000
CCc1cccc2cc(O)cc(-c3ncc4c(N5CC6CCC(C5)N6)nc(OCCN5CCC(CC6CN(c7cnc(C(=O)N[C@H](C(=O)N8C[C@H](O)C[C@H]8C(=O)N[C@@H](C)c8ccc(-c9scnc9C)cc8)C(C)(C)C)cn7)C6)CC5)nc4c3F)c12 [Compound 279]	60 to 80	< 600
Cc1ncsc1-c1ccc([C@H](C)NC(=O)[C@@H]2C[C@@H](O)CN2C(=O)[C@@H](c2cc(N3CCN(C(=O)OC[C@@H]4CC[C@@]5(COc6nc(N7CC8CCC(C7)N8)c7cnc(-c8cc(O)cc(Cl)c8C(F)(F)F)c(F)c7n6)CCCN45)CC3)no2)C(C)C)cc1 (relative stereo) [Compound 257, [(3S,8R)-8-[[7-[3-chloro-5-hydroxy-2-(trifluoromethyl)phenyl]-4-(3,8-diazabicyclo[3.2.1]octan-3-yl)-8-fluoro-pyrido[4,3-d]pyrimidin-2-yl]oxymethyl]-1,2,3,5,6,7-hexahydropyrrolizin-3-yl]methyl 4-[5-[(1R)-1-[(2S,4R)-4-hydroxy-2-[[(1S)-1-[4-(4-methylthiazol-5-yl)phenyl]ethyl]carbamoyl]pyrrolidine-1-carbonyl]-2-methyl-propyl]isoxazol-3-yl]piperazine-1-carboxylate]	80 to 100	< 600
CCc1cccc2cc(O)cc(-c3ncc4c(N5CC6CCC(C5)N6)nc(N5CC(N6CCC(CC7CN(c8cc([C@H](C(=O)N9C[C@H](O)C[C@H]9C(=O)N[C@@H](C)c9ccc(-c%10scnc%10C)cc9)C(C)C)on8)C7)CC6)C5)nc4c3F)c12 [Compound 165]	20 to 60	< 600
CCc1cccc2cc(O)cc(-c3ncc4c(N5CC6CCC(C5)N6)nc(OC[C@@]56CCCN5[C@H](COC(=O)N5CCN(c7cc([C@H](C(=O)N8C[C@H](O)C[C@H]8C(=O)N[C@@H](C)c8ccc(-c9scnc9C)cc8)C(C)C)on7)CC5)CC6)nc4c3F)c12 (stereo in doubt) [Compound 7]		< 600
CCc1cccc2cc(O)cc(-c3ncc4c(N5CC6CCC(C5)N6)nc(OC[C@]56CCCN5[C@H](COC(=O)N5CCN(c7cc([C@H](C(=O)N8C[C@H](O)C[C@H]8C(=O)N[C@@H](C)c8ccc(-c9scnc9C)cc8)C(C)C)on7)[C@H](C)C5)CC6)nc4c3F)c12 [Compound 130, [(3S,7aR)-7a-{[(4-{3,8-diazabicyclo[3.2.1]octan-3-yl}-7-(8-ethyl-3-hydroxynaphthalen-1-yl)-8-fluoropyrido[4,3-d]pyrimidin-2-yl)oxy]methyl}-hexahydro-1H-pyrrolizin-3-yl]methyl (3R)-4-{5-[(2R)-1-[(2S,4R)-4-hydroxy-2-{[(1S)-1-[4-(4-methyl-1,3-thiazol-5-yl)phenyl]ethyl]carbamoyl}pyrrolidin-1-yl]-3-methyl-1-oxobutan-2-yl]-1,2-oxazol-3-yl}-3-methylpiperazine-1-carboxylate]	80 to 100	< 600
C#Cc1c(F)ccc2cc(O)cc(-c3ncc4c(N5CC6CCC(C5)N6)nc(OC[C@]56CCCN5[C@H](COC(=O)N5CCN(c7cc([C@H](C(=O)N8C[C@H](O)C[C@H]8C(=O)N[C@@H](C)c8ccc(-c9scnc9C)cc8)C(C)C)on7)CC5)CC6)nc4c3F)c12 [Compound 56, [(3S,7aR)-7a-{[(4-{3,8-diazabicyclo[3.2.1]octan-3-yl}-7-(8-ethynyl-7-fluoro-3-hydroxynaphthalen-1-yl)-8-fluoropyrido[4,3-d]pyrimidin-2-yl)oxy]methyl}-hexahydro-1H-pyrrolizin-3-yl]methyl 4-{5-[(2R)-1-[(2S,4R)-4-hydroxy-2-{[(1S)-1-[4-(4-methyl-1,3-thiazol-5-yl)phenyl]ethyl]carbamoyl}pyrrolidin-1-yl]-3-methyl-1-oxobutan-2-yl]-1,2-oxazol-3-yl}piperazine-1-carboxylate]	80 to 100	< 600
